Molecular target: T1, vitamin D receptors (Mus musculus, UniProt P48281)
T1 construct: the skin treated is removed and the epidermis is separated from the dermis; from tissue; host or cells: epidermis of SKH mice (in vivo, topical application)
T1 sequence (P48281 1-422): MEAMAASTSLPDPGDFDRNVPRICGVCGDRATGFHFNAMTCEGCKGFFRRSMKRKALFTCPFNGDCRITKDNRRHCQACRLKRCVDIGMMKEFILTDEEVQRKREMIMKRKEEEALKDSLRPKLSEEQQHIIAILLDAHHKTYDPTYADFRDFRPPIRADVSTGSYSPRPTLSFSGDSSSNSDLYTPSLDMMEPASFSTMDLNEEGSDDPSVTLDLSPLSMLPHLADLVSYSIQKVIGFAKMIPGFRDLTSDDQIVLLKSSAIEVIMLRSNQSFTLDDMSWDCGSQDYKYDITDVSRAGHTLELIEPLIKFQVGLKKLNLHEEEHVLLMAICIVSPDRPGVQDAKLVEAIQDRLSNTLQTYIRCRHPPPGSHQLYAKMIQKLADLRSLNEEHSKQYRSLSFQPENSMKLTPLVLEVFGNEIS
Assay: Induction of 24-Hydroxylase mRNA in the epidermis of SKH mice after a single topical application (semiquantitative PCR)
Format: in vivo
Details: for Expression of the mRNA for 24-Hydroxylase: Induction factor versus ethanol: single topical application of 50 μl to the back, epidermis 8 hours after application, normalized to GAPDH mRNA
Protocol: The test protocol used is the following:
SKH mice receive a single topical application of a compound according to the invention in solution in ethanol in increasing concentrations. A volume of 50 μl of the product to be tested or of the vehicle alone is applied to the back of the mice with the aid of a pipette.
A volume of 50 μl of the product to be tested or of the vehicle alone is applied to the back of the mice with the aid of a pipette.
8 hours after the topical application, the mice are humanely killed, the skin treated is removed and the epidermis is separated from the dermis. The quantification of the mRNA for 24-Hydroxylase is carried out by semiquantitative PCR.

[1] = concentration 1 % (weight/volume) in ethanol
[2] = concentration 0.1 % (weight/volume) in ethanol

SMILES	Expression of the mRNA for 24-Hydroxylase: Induction factor versus ethanol [1]	Expression of the mRNA for 24-Hydroxylase: Induction factor versus ethanol [2]	Activity (induction of 24-Hydroxylase mRNA) compared with 1,25-(OH)2-vitamin D3 (at the concentration of 1%, single topical application, SKH mice)
CC(=CC=CC(C)(C)O)c1cccc(OCc2ccc(CO)c(CO)c2)c1 [Example 4, 6-[3-(3,4-bis-Hydroxymethylbenzyloxy)phenyl]-2-methylhepta-3,5-dien-2-ol]	11	–	comparable to that of 1,25-(OH)2-vitamin D3 at 0.001%
CCC(O)(/C=C/C=C(\C)c1cccc(CCc2ccc(CO)c(CO)c2)c1)CC [Example 59, (4E,6E)-7-{3-[2-(3,4-bis-Hydroxymethylphenyl)ethyl]-phenyl}-3-ethylocta-4,6-dien-3-ol]	–	20.5	–
CCC(O)(/C=C/C=C(\C)c1cccc(C=Cc2ccc(CO)c(CO)c2)c1)CC [Example 61, (4E-6E)-7-{3-[2-(3,4-bis-Hydroxymethylphenyl}vinyl]-phenyl)-3-ethylocta-4,6-dien-3-ol]	10	–	–
CCC(O)(/C=C/C=C(\C)c1cccc(OCc2ccc(CO)c(CO)c2)c1)CC [Example 65, (4E,6E)-7-[3-(3,4-bis-Hydroxymethylbenzyloxy)phenyl]-3-ethylocta-4,6-dien-3-ol]	15	–	–

Further lines, with some results ahead:

Expression of the mRNA for 24-Hydroxylase: Induction factor versus ethanol [1]	Expression of the mRNA for 24-Hydroxylase: Induction factor versus ethanol [2]	SMILES	Activity (induction of 24-Hydroxylase mRNA) compared with 1,25-(OH)2-vitamin D3 (at the concentration of 1%, single topical application, SKH mice)
–	25	CC/C(=C\C=C\C(O)(CC)CC)c1cccc(OCc2ccc(CO)c(CO)c2)c1 [Example 68, (4E,6E)-7-[3-(3,4-bis-Hydroxymethylbenzyloxy)phenyl]-3-ethylnona-4,6-dien-3-ol]	–
–	17	CCC(O)(CC)CC/C=C(\C)c1cccc(OCc2ccc(CO)c(CO)c2)c1 [Example 72, (E)-7-[3-(3,4-bis-Hydroxymethylbenzyloxy)phenyl]-3-ethyloct-6-en-3-ol]	–
–	21	CCC(O)(/C=C/C=C(\C)c1cccc(COc2ccc(CO)c(CO)c2)c1)CC [Example 82, (4E,6E)-7-[3-(3,4-bis-Hydroxymethylphenoxy-methyl)phenyl]-3-ethylocta-4,6-dien-3-ol]	–

Reference: patent publication US6689922B1, “Vitamin D analogues” (Galderma Research & Development S.N.C., priority 1998, dated 2004)
